# Test results taken from patent US9988400B2 (Genentech, Inc., priority 2013, dated 2018).
# pEC50: −log10 of the molar value.
# Target: T1, HEK cells stably transfected with tetracycline inducible hNR1 and hNR2A (Homo sapiens, UniProt Q05586+Q12879)
# T1 construct: expressed in transfected cells; host or cells: HEK cells, stably transfected, tetracycline/doxycycline inducible
# Experiment: Assay 1: Cell-Based Assay, cytosolic calcium response to positive allosteric modulators (with 30 μM glycine and 300 nM L-glutamate, EC30)
# Conditions: Table 3; cytosolic calcium response, with 30 μM glycine and 300 nM L-glutamate (EC30); — = no plateau was reached
# How it was run: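 Cells induced 24 h with 7.5 μg mL^−1 doxycycline plus 500 μM (+)-ketamine, loaded 60 min at 37 °C with calcium dye in Mg-free HBSS (1.8 mM Ca, probenecid, 10 μM (+)-ketamine, pH 7.15). Peak RFU over 5 min after compound addition, scaled to 100 μM L-glutamate (100%) and 0 μM (0%); four-parameter Hill fit for EC50, max % if no plateau.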
# T1 sequence (Q12879 23-1464, other chains not shown): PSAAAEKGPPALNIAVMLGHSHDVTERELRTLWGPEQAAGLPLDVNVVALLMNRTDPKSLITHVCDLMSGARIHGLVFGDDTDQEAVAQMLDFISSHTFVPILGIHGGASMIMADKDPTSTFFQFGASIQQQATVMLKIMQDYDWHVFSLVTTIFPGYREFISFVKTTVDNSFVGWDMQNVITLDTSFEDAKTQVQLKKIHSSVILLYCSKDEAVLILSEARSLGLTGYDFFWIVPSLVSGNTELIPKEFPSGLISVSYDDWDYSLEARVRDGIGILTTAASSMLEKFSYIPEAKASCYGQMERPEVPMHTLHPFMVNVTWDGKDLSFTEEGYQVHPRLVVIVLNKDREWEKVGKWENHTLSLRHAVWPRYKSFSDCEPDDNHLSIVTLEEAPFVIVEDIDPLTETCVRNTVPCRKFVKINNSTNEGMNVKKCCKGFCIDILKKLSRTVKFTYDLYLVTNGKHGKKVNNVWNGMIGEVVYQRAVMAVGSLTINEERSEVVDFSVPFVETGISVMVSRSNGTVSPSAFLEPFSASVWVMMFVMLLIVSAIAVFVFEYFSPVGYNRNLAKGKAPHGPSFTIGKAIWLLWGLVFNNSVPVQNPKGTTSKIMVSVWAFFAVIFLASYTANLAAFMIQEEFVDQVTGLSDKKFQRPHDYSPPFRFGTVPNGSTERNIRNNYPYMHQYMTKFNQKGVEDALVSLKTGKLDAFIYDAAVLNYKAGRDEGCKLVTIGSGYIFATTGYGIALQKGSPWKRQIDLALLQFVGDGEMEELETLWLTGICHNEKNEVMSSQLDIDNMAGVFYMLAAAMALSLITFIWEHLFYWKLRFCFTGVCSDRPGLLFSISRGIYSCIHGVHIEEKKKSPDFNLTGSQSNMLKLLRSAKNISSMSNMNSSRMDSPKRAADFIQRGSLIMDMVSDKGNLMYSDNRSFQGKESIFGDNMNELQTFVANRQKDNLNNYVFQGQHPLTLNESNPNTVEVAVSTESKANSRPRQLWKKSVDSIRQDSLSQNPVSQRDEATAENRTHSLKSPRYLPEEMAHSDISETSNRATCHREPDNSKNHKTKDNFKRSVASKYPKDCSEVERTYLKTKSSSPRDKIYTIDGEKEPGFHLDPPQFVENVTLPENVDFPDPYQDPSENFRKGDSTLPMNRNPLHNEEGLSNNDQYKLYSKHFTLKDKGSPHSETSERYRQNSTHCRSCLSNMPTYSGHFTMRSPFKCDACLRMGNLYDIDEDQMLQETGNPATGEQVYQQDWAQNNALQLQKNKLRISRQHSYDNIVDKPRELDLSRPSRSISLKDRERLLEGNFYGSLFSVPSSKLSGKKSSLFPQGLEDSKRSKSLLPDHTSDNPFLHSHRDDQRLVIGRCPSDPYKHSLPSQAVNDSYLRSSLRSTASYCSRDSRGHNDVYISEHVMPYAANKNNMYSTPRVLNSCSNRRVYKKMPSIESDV
row,Structure (SMILES),pEC50
1,"CCNC(=O)c1c(C(F)F)sc2nc(Cn3nc(Cl)cc3C(F)(F)F)cc(=O)n12 [compound 259, 7-[[3-chloro-5-(trifluoromethyl)pyrazol-1-yl]methyl]-2-(difluoromethyl)-N-ethyl-5-oxo-thiazolo[3,2-a]pyrimidine-3-carboxamide]",6.13
2,"Cc1sc2nc(Cn3nc(C(F)(F)F)cc3Cl)cc(=O)n2c1/C=C\C#N [compound 263, (Z)-3-[7-[[5-chloro-3-(trifluoromethyl)pyrazol-1-yl]methyl]-2-methyl-5-oxo-thiazolo[3,2-a]pyrimidin-3-yl]prop-2-enenitrile]",6.30
3,"Cc1sc2nc(Cn3nc(C(F)(F)F)cc3Cl)cc(=O)n2c1/C=C/C(N)=O [compound 264, (E)-3-[7-[[5-chloro-3-(trifluoromethyl)pyrazol-1-yl]methyl]-2-methyl-5-oxo-thiazolo[3,2-a]pyrimidin-3-yl]prop-2-enamide]",5.29
4,"CCNC(=O)c1c(C)sc2nc(Cn3nc(C(F)(F)F)cc3CC(C)C)cc(=O)n12 [compound 265, N-ethyl-7-[[5-isobutyl-3-(trifluoromethyl)pyrazol-1-yl]methyl]-2-methyl-5-oxo-thiazolo[3,2-a]pyrimidine-3-carboxamide]",5.32
5,N#CC1CC1c1c(Cl)sc2nc(Cn3nc(C(F)(F)F)cc3Cl)cc(=O)n12 (stereo not drawn) [compound 267],6.80
6,"CCN(Cc1cc(=O)n2c(/C=C/C#N)c(C)sc2n1)c1ccc(F)cc1 [compound 279, (E)-3-[7-[(N-ethyl-4-fluoro-anilino)methyl]-2-methyl-5-oxo-thiazolo[3,2-a]pyrimidin-3-yl]prop-2-enenitrile]",5.74

# More lines, in order of rising pEC50, values ahead:
row,pEC50,Structure (SMILES)
1,4.97,"Cc1sc2nc(Cc3nc(C(F)(F)F)cn3C)cc(=O)n2c1C1CC1C#N (stereo not drawn) [compound 278, 2-[2-methyl-7-[[1-methyl-4-(trifluoromethyl)imidazol-2-yl]methyl]-5-oxo-thiazolo[3,2-a]pyrimidin-3-yl]cyclopropanecarbonitrile]"
2,5.45,"Cc1sc2nc(Cc3nn(C)cc3Cl)cc(=O)n2c1C1CC1C#N (stereo not drawn) [compound 271, 2-[7-[(4-chloro-1-methyl-pyrazol-3-yl)methyl]-2-methyl-5-oxo-thiazolo[3,2-a]pyrimidin-3-yl]cyclopropanecarbonitrile]"
3,5.61,"CCN(Cc1cc(=O)n2c(/C=C\C#N)c(C)sc2n1)c1ccc(F)cc1 [compound 260, (Z)-3-[7-[(N-ethyl-4-fluoro-anilino)methyl]-2-methyl-5-oxo-thiazolo[3,2-a]pyrimidin-3-yl]prop-2-enenitrile]"
4,5.81,"CCN(Cc1cc(=O)n2c(/C=C/C(N)=O)c(C)sc2n1)c1ccc(F)cc1 [compound 261, (E)-3-[7-[(N-ethyl-4-fluoro-anilino)methyl]-2-methyl-5-oxo-thiazolo[3,2-a]pyrimidin-3-yl]prop-2-enamide]"
5,5.95,"Cc1sc2nc(Cn3nc(C(F)(F)F)cc3Cl)cc(=O)n2c1/C=C/C#N [compound 262, (E)-3-[7-[[5-chloro-3-(trifluoromethyl)pyrazol-1-yl]methyl]-2-methyl-5-oxo-thiazolo[3,2-a]pyrimidin-3-yl]prop-2-enenitrile]"
6,6.74,"N#CC1CC1c1c(Cl)sc2nc(Cn3nc(Cl)cc3C(F)(F)F)cc(=O)n12 (stereo not drawn) [compound 268, 2-[2-chloro-7-[[3-chloro-5-(trifluoromethyl)pyrazol-1-yl]methyl]-5-oxo-thiazolo[3,2-a]pyrimidin-3-yl]cyclopropanecarbonitrile]"
